Measured values published in US20250041270A1, “SMALL MOLECULE DRUGS THAT REDUCE PROTEIN AGGREGATION” (BIOVENTURES, LLC, priority 2021, published 2025).

Tests used:
C. elegans strain CL2355 = assay: Chemotaxis to n-butanol in Aβ1-42 expressing C. elegans; type: in vivo; conditions: 0.1 μM
Description: Chemotaxis and paralysis assay)s in Aβ-tragsgenic C elegans strains CL2355 and CL4176. Transgenic C. elegans strains, expressing Aβ1-42 in neurons (C2355) or in muscle (CL4176), were grown at 20° C. with ample 1. coli (OP50) bacteria, and on day 1 of adult life worms were lysed to release eggs and thus generate a synchronized cohort. Eggs were then placed on I00-mm NGM-agar Petri dishes seeded with RNAi-expressing bacteria (E coil H-T1′15) targeting a GFAP orthologue, or empty-vector control bacteria. Worms at the L3-L4 transition were upshifted to 25.5° C. to induce human Aβ1-42 transgene expression and assayed after 48 hours. Chemotaxis (Dosanjh et al., 2010) and paralysis (Dostal and Link, 2010) assays were performed as described previously (Ayyadevara et al., 2017; Ayyadevara et al., 2016b; Ayyadevara et al., 2016d; Kakraba et al., 2019).
(§1) RNAi in C.elegans. RNA-mediated interference (RNAi) is achieved by feeding bacteria that express double-stranded RNA corresponding to an exonic fragment of the mRNA target (Ayyadevara et al., 2016c; Fire et al., 1991; Fire et al., 1998; Kakraba et al., 2019). Briefly, worm cultures were synchronized by alkaline hypochlorite lysis to release unlaid eggs. […] Worms on adult day 3 (5.5 days post-hatch) were imaged to assess total aggregate fluorescence (strain AM141), or were assessed for paralysis (VH255) or chemotaxis toward n-butanol (CL2355).

C. elegans strain AM141 = assay: Q40::YFP aggregate fluorescence per worm; type: in vivo; conditions: 5 days post-hatch
Source text: C. elegans strains: Nematode strains used in this study were all obtained from the Caenorhabditis Genetics Center (CGC; Minneapolis, MN). Nematode models of Alzheimer's disease-like arnyloidosis were CL4176 [smg-1^ts; myo-3p::Aβ1-42::let-851 3′-UTR; rol-6(sul006)] expressing human Aβ1-42 in muscle; and CL2355 [smg-l^ts; snb-1::Aβ1-42::3′UTR(long); mtl-2::gfp] expressing human Aβ1-42 in all neurons. Strain AM141 expresses a polyglutamine reporter (Q40::YFP) in muscle, and thus serves as a model of glutamine-tract aggregation similar to that observed in Huntington disease and several other neuropathologies (Morley et al., 2002). All strains were propagated at 20° C. on2% (w/v) agar plates containing nematode growth medium (NGM), overlaid with E col strain OP50 unless otherwise noted.
as §1

C. elegans strain VH255 = assay: Paralysis assay in human tau-expressing C. elegans; type: in vivo; conditions: 1-μM; compared with siRNA against ifp-1
Description: Paralysis assays in human tau-expressing C. elegans strain VH255. Transgenic C. elegans strain VH255, with pan-neuronal expression of human tau (Brandt et al., 2009), are maintained at 25° C. on agar plates overlaid with a lawn of E. coli (OP50) bacteria. Worms are lysed in alkaline hypochlorite solution to obtain unlaid eggs used to generate a synchronized culture. The eggs were then transferred to 100-mm NGM-agar plates, to which MSR1 or MSR2 had been added to a final concentration of 1 μM. For ifp-1 RNAi knockdown, the bacterial lawn consisted of strain HT115 expressing an exonic segment of double-stranded ifp-I RNA (see next section). The worms were washed and added to fresh, drug-equilibrated plates every two days. Assays were performed on day-3 adults to assess the fraction of paralyzed worms.

SH-SY5Y-APPSw cells = assay: Total sarkosyl-insoluble aggregate protein, SYPRO Ruby stained gels; type: cell-based, human; conditions: for suppression of aggregate protein: cells treated 48 h, sarkosyl-insoluble fraction
Description: MSR1 treatment of SH-SY5Y-APPSw, cells. Human neuroblastoma (SH-SY5Y-APPSw) cells were grown as previously described (Kakraba et al., 2)19, Liu et al., 2005). SH-SY5Y-APPSw cells, expressing an aggregation-prone “Swedish” double mutant of amyloid precursor protein (APPSw), were grown in DMEM plus 10% (v/v) FBS at 37° C. Cells were suspended in trypsin/EDTA and rinsed in buffer prior to replating or harvesting. Immediately preceding assay, cells were grown 48 hr in the presence of 10-μM MSR1 dissolved in DMSO (0.02% final concentration), or 0.02% DMSO (solvent alone) for control cells. Cells were harvested, total protein was isolated, and aggregate proteins were purified as described below.
Isolation of aggregate proteins. Cultured human cells were collected, flash frozen in liquid nitrogen, and homogenized at 0° C. in the presence of buffer containing nonionic detergent (1% v/v NP40, 20-mM Hepes pH 7.4, 300-mM NaCl, 2-mM MgCl2, and protease/phosphatase inhibitors [CalBiochem]). Lysates were centrifuged (5 min, 3000 rpm at 4° C.) to remove debris. After removal of cytosolic proteins (soluble in 1% NP40 nonionic detergent) by centrifugation (18 min, 13,000×g at 4° C.), protein pellets were brought to pH 7.4 with 0.1-M HEPES buffer containing 1% v/v sarkosyl(sodium lauryl sarcosinate) and 5-mM EDTA, and centrifuged 30 min at 100,000×g. Pellet proteins (the sarkosyl-insoluble fraction) were resuspended in Laemmli loading buffer (containing 50-mM dithiothreitol and 2% v/v SDS, sodium dodecyl sulfate), heated 5 min at 95° C. to dissolve proteins soluble in this buffer, and separated by electrophoresis on 4-20% polyacrylamide gradient gels containing 1% v/v SDS. Gels were stained with SYPRO Ruby (ThermoFisher) or Coomassie Blue to visualize protein. Gel lanes were robotically cut into 1-mm slices, and digested thoroughly with trypsin. Proteins in each slice were identified by mass spectrometry as described previously (Ayyadevara et al., 2015; Ayyadevara et al., 2016a; Ayyadevara et al., 2016b; Ayyadevara et al., 2016c; Ayyadevara et al., 2016d; Balasubramaniam et al., 2018).

C. elegans = assay: Effect on C. elegans development; type: in vivo; conditions: all doses tested, data not shown
neuroblastoma cells = assay: Initial testing for cytotoxicity in neuroblastoma cells; type: cell-based, human; conditions: data not shown

Compound | chemotaxis restored to (C. elegans strain CL2355) | reduction of aggregate intensity per worm (C. elegans strain AM141; 10 μM) | reduction of aggregate intensity per worm (C. elegans strain AM141; 0.1-μM) | paralysis caused by tau aggregation (C. elegans strain VH255) | suppression of aggregate protein (SH-SY5Y-APPSw cells) | suppression of protein aggregation (SH-SY5Y-APPSw cells; summary statement: a variety of model systems) | C. elegans development (C. elegans) | cytotoxicity (neuroblastoma cells)
O=C(NC[C@H]1CC[C@H](CO)CC1)c1ccc(N2CCCC2)c(Cl)c1 [MSR1, 3-chloro-N-{[trans-4-(hydroxymethyl)cyclo-hexyl]methyl}-4-pyrrolidin-1-ylbenzamide] | ~90% | ~50% | 35% | alleviated to a similar extent | 60-75% | 60-75% |  | 
O=C(c1cc2c([nH]c1=O)CCCC2)N1CCN(c2ccc(Cl)cn2)CC1 [MSR2, 3-{[4-(5-chloro-2-pyridinyl)-1-piperazinyl]carbonyl}-5,6,7,8-tetrahydro-2(1H)-quinolinone] |  |  |  |  | did not significantly reduce |  |  | 
O=C(c1ccc(N2CCCC2)c(Cl)c1)N1CCN(c2ccccn2)CC1 [MSR3, 1-(3-chloro-4-pyrrolidin-1-ylbenzoyl)-4-pyridin-2-ylpiperazine] |  |  |  |  |  |  | delay C. elegans development | cytotoxic
